Test results as given in article PMC6774960, “Design, synthesis and biological evaluation of a series of new resveratrol analogues as potential anti-cancer agents” (Royal Society Open Science, 2019).

What was measured:
[1] = tested on: HepG2 cells; experiment: MTT anti-proliferation assay, HepG2; type: cell-based, human; settings: average of three determinations
Method: (§1) The 22 synthesized resveratrol compounds were evaluated for anti-proliferative activities against three human cancer cell lines, including HepG2, A549 and HeLa cells, using 3-[4,5-dimethylthiazol-2-yl]-2,5 diphenyl tetrazolium bromide (MTT) assays. Paclitaxel, a well-known tubulin inhibitor, was used as a positive control. […] Therefore, the inhibitory activity of the compounds depended not only on the 2-position substitution of acrylic acid, but also on the 3-position substitution of acrylic acid.
(§2) The anti-proliferative and cytotoxicity activity was determined using MTT assay. Human cervical carcinoma HeLa cells, human hepatocellular carcinoma HepG2 cells, human lung carcinoma A549 cells were representative in the anti-proliferation assay, which were obtained from the Shanghai Institute of Cell Biology (Shanghai, China). Normal African green monkey kidney Vero cells were a gift from Dr Xiumiao He at Guangxi University for Nationalities. Normal human hepatocytes LO2 cells were a gift from Dr Xing Lin at Guangxi Medical University. The HepG2, Hela, LO2 and Vero cells were cultured in Dulbecco's modified Eagle's medium (DMEM, Gibco) and the A549 cells were cultured in RPMI1640 (Gibco), both media were supplemented with 10% fetal calf serum and antibiotics (100 IU ml^−1 penicillin, 100 IU ml^−1 streptomycin; Amresco).
(§3) Cells were seeded in 96-well microtiter plates at a density of 1 × 10^4 cells well^−1 and incubated with different concentrations of compound (6.25, 12.50, 25.00, 50.00 to 100.00 µM), cisplatin and paclitaxel in RPMI-1640 or DMEM at 37°C with 5% CO2. After 24 h, cell morphology was observed using a light microscope, and then 20 µl of MTT solution (5 mg ml^−1) was added to the well and incubated for 4 h, then cell survival was determined by measuring the optical density (OD) absorbance at a wavelength of 570 nm using an ELISA microplate reader. The inhibition rate (IR) following each compound treatment was determined by the following equation: IR (%) = (1 − ODexp/ODcon) × 100%, where ODexp and ODcon are the OD of the treated and untreated cells, respectively. Cisplatin and paclitaxel were used as positive control drugs.

[2] = tested on: HepG2 cells; experiment: Apoptosis analysis, Annexin V-FITC/PI flow cytometry; type: cell-based, human; settings: 24 h
Method: To investigate the effect of compound r on the apoptosis of HepG2 cells, cells were treated with different concentrations of compound r (0, 5, 15 and 45 µM) for 24 h and apoptosis was detected by flow cytometry analysis.
Figure 4. Effect of compound r on the apoptosis in HepG2 cells. Analysis of compound r induced apoptosis in HepG2 cells. The HepG2 cells were treated with 0, 5, 15 or 45 µM by flow cytometry. Cells were stained using propidium iodide (IP) and fluorescein isothiocyanate (FITC). The data manifested the percentage of early apoptotic cells (lower right) or late apoptosis and cell death (upper right) in each quadrant. TEXT PRINTED IN THE PICTURE: control: 7.22% (20 μM); 51.10% (20 μM); 18.67% (20 μM); 23.01% (20 μM) | compound r: 10.95% (low (5 μM)); 22.17% (low (5 μM)); 45.61% (low (5 μM)); 21.27% (low (5 μM)); 10.26% (middle (15 μM)); 18.51% (middle (15 μM)); 33.78% (middle (15 μM)); 37.45% (middle (15 μM)); 7.78% (high (45 μM)); 32.94% (high (45 μM)); 28.71% (high (45 μM)); 30.57% (high (45 μM)) DOUBTS OF THE COPYIST ABOUT THIS PICTURE: The quadrant percentages have no printed measure. For each plot they are listed in the order upper left, upper right, lower left, lower right (axes PI vs annexin V FITC). / The blank (0 μM) plot prints 0.00%, 0.01%, 99.91% (faint, partly hidden by dots, uncertain) and 0.08%. It is left out because no substance is present. / control (20 μM): 18.67% and 23.01% are partly overlaid by dots, so the digits are not fully certain. / compound r, low (5 μM): 21.27% is partly overlaid by dots; the first digit could be 2 or 3. 45.61% is in small print. / compound r, middle (15 μM): 33.78% and 37.45% are in small print, so 3/8 are not fully certain. / compound r, high (45 μM): 30.57% is partly overlaid by dots, and 28.71% is in small print. / The label 'compound r' is printed only on the axis of the bar chart. The scatter plots themselves are labelled only low, middle and high.
HepG2 cells seeded in 6-well plates were treated with compound r (0, 5, 15, 45 µM) or cisplatin (20 µM) for 24 h. […] The stained cells were detected via a flow cytometer.

[3] = tested on: A549 cells; experiment: MTT anti-proliferation assay, A549; type: cell-based, human; settings: average of three determinations
Method: as §1, §2, §3

[4] = MTT cytotoxicity test, Vero; type: cell-based, African green monkey; settings: African green monkey, Vero cells (normal African green monkey kidney), average of three determinations
Method: Vero cells are non-tumorigenic cell lines and are important raw materials as the research and production of biological products. Vero cells show low tumorigenicity and had been approved for use in the production of human virus vaccines. Thus, Vero cells were chosen as a control for cytotoxicity. All compounds were evaluated for their cell toxicity against Vero and normal human hepatocytes cells line (LO2) using MTT assays.
as §2, §3

COc1ccc(C(=Cc2cc(C(F)(F)F)ccc2Cl)C(=O)O)cc1 [compound r, 3-(2-chloro-5-(trifluoromethyl)phenyl)-2-(4-methoxyphenyl) acrylic acid]
IC50 ([1]; 24 h): 7 ± 1 µM | IC50 ([1]; Homo sapiens, HepG2, 24 h): 7.49 µM | apoptotic cell population ([2]; HepG2, 5 µM): 43.44% | apoptotic cell population ([2]; HepG2, 15 µM): 55.96% | apoptotic cell population ([2]; HepG2, 45 µM): 63.51% | IC50 ([3]; 24 h): 3.8 ± 0.3 µM | IC50 ([3]; Homo sapiens, A549, 24 h): 3.77 µM | CC50 at 24 h [4]: 84 ± 3 µM
